Source: patent publication US6335459B1, “Aryl carboxylic acid and aryl tetrazole derivatives as IP receptor modulators” (Syntex (U.S.A.) LLC, priority 1998, dated 2002)
Where a name gives a salt, the structure may show the parent alone.

Structure (SMILES) | melting point
O=C(O)COc1cccc(/C=C\COC(=O)N(c2ccccc2)c2ccccc2)c1 (as salt: salt) [Example 9, Cis-[3-(3-Diphenylcarbamoyloxypropenyl)phenoxy]acetic acid] | 132.5 to 135 °C
O=C(O)CCc1cccc(/C=C\COC(=O)N(c2ccccc2)c2ccccc2)c1 (as salt: salt) [Example 13, cis-3-[3-(3-Diphenylcarbamoyloxypropenyl)phenyl]propionic acid] | 131.8 to 132.4 °C
O=C(O)COc1cccc(COC(=O)N(c2ccccc2)c2ccccc2)c1Cl [Example 1, {2-Chloro-3-[(diphenylcarbamoyloxy)methyl]phenoxy}acetic acid] | 182.2 to 182.9 °C
Cc1c(COC(=O)N(c2ccccc2)c2ccccc2)cccc1OCC(=O)O [Example 2, {3-[(Diphenylcarbamoyloxy)methyl]-2-methylphenoxy}acetic acid] | 180.1 to 180.7 °C
O=C(O)COc1cccc(COC(=O)N(c2ccccc2)c2ccccc2)c1 [Example 4, {3-[(Diphenylcarbamoyloxy)methyl]phenoxy}acetic acid] | 142.2 to 143.8 °C
O=C(O)COc1cccc(/C=C/COC(=O)N(c2ccccc2)c2ccccc2)c1 [Example 6, Trans-[3-(3-Diphenylcarbamoyloxypropenyl)phenoxy}acetic acid] | 112.4 to 113.7 °C
Cc1c(/C=C\COC(=O)N(c2ccccc2)c2ccccc2)cccc1OCC(=O)O [Example 8, Cis-[3-(3-Diphenylcarbamoyloxypropenyl)-2-methylphenoxy]acetic acid] | 133.4 to 135.5 °C
O=C(O)Cc1cccc(CCOC(=O)N(c2ccccc2)c2ccccc2)c1 [Example 12, [3-(2-diphenylcarbamoyloxyethyl)phenyl]acetic acid] | 123 to 123.3 °C
Cc1c(CCCOC(=O)N(c2ccccc2)c2ccccc2)cccc1CC(=O)O [Example 12, [3-(3-diphenylcarbamoyloxypropyl)-2-methylphenyl]acetic acid] | 128.7 to 129.2 °C
O=C(O)Cc1cccc(CCCCOC(=O)N(c2ccccc2)c2ccccc2)c1 [Example 12, [3-(4-diphenylcarbamoyloxybutyl)phenyl]acetic acid] | 117.8 to 119.6 °C
O=C(O)Cc1cccc(CCCCCOC(=O)N(c2ccccc2)c2ccccc2)c1 [Example 12, [3-(5-diphenylcarbamoyloxypentyl)phenyl]acetic acid] | 128.1 to 128.7 °C
O=C(O)Cc1cccc(CCCCCCOC(=O)N(c2ccccc2)c2ccccc2)c1 [Example 12, [3-(6-diphenylcarbamoyloxyhexyl)phenyl]acetic acid] | 99.8 to 101.7 °C

The remaining lines, values ahead:

melting point | Structure (SMILES)
112.5 to 112.8 °C | O=C(O)COc1cccc(/C=C\CCOC(=O)N(c2ccccc2)c2ccccc2)c1 (as salt: salt) [Example 10A, cis-[3-(4-diphenylcarbamoyloxybut-1-enyl)phenoxy]acetic acid tert-butylamine salt]
107 to 108.5 °C | O=C(O)COc1cccc(/C=C\COC(=O)N(Cc2ccccc2)c2ccccc2)c1 (as salt: salt) [Example 10B, cis-{3-[3-(benzylphenylcarbamoyloxypropenyl)phenoxy]acetic acid tert-butylamine salt]
102 to 106 °C | CC(C)(C)N.O=C(O)CCCOc1cccc(/C=C\COC(=O)N(c2ccccc2)c2ccccc2)c1 [Example 10A, cis-4-[3-(3-diphenylcarbamoyloxypropenyl)phenoxy]butyric acid tert-butylamine salt]
56.3 to 56.7 °C | O=C(O)CCCCOc1cccc(/C=C\COC(=O)N(c2ccccc2)c2ccccc2)c1 [Example 10A, cis-5-[3-(3-diphenylcarbamoyloxypropenyl)phenoxy]pentanoic acid]
87 to 88.5 °C | CC(C)(C)N.O=C(O)COc1cccc(/C=C\CCCCOC(=O)N(c2ccccc2)c2ccccc2)c1 [Example 10A, cis-[3-(6-diphenylcarbamoyloxyhex-1-enyl)phenoxy]acetic acid tert-butylamine salt]
151.2 to 153.1 °C | CC(C)(C)N.O=C(O)Cc1cccc(/C=C\CCOC(=O)N(c2ccccc2)c2ccccc2)c1 [Example 14A, cis-[3-(4-diphenylcarbamoyloxybut-1-enyl)phenyl]acetic acid tert-butylamine salt]
180.5 to 184 °C | CC(C)(C)N.O=C(O)c1cccc(/C=C\COC(=O)N(c2ccccc2)c2ccccc2)c1 [Example 14B, cis-3-(3-diphenylcarbamoyloxypropenyl)benzoic acid tert-butylamine salt]
172.8 to 176.8 °C | CC(C)(C)N.O=C(O)c1cccc(/C=C\CCOC(=O)N(c2ccccc2)c2ccccc2)c1 [Example 14B, cis-3-(4-diphenylcarbamoyloxybut-1-enyl)benzoic acid tert-butylamine salt]
112.3 to 113.1 °C | CC(C)(C)N.CC(CCc1cccc(CC(=O)O)c1)OC(=O)N(c1ccccc1)c1ccccc1 (stereo not drawn) [Example 14C, [3-(3-diphenylcarbamoyloxybutyl)phenyl]acetic acid tert-butylamine salt]
